Results: PMC8113459, “Selective inhibition of cullin 3 neddylation through covalent targeting DCN1 protects mice from acetaminophen-induced liver toxicity” (Nature Communications, 2021)

Legend:
DCN1 [1] = target: T1, DCN1 (Homo sapiens, UniProt Q96GG9); assay: Intact-protein mass spectrometric analysis of covalent complex formation, Method A; format: binding; conditions: for Percentage of the formation of covalent complex with DCN1 protein: 37 °C
Excerpt: MassHunter Qualitative Analysis software (Agilent) was used to analyze the data. Intact protein masses were obtained using the maximum entropy deconvolution algorithm. The mass spectrometry data in Supplementary Figs. 1–11 were generated by Method A.
Target sequence in this assay (Q96GG9 58-259 limits assumed): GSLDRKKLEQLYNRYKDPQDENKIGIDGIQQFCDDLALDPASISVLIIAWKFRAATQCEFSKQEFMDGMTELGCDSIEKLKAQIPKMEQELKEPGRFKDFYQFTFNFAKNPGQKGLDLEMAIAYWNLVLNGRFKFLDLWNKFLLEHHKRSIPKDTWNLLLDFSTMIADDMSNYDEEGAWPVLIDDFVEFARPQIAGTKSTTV

Solubility = format: physicochemical
DCN1 [2] = target: T1, DCN1; assay: Cocrystal structures of lyso-DCN1-inhibitor complexes; design: to DCN1 residues 62–251; His6 (N); TEV cleavage site (N); lysozyme residues 1–164 with C54T, C97A, A146T, D127A, R154A (fusion partner, N-terminal of DCN1); made in house; host or cells: Rosetta 2 cells (E. coli)
Method: Lysozyme–DCN1 gene was synthesized fusing lysozyme residues 1–164, containing mutations (C54T, C97A, A146T, D127A, and R154A), to DCN1 residues 62–251. Ligation independent cloning was utilized to clone the fused gene into an N-terminal His6–TEV expression vector. The clone was transformed into Rosetta 2 cells, grown in terrific broth at 37 °C, and expressed overnight with 0.4 mM isopropyl β-D-1-thiogalactopyranoside at 20 °C. Pelleted cells were freeze-thawed and lysed in 25 mM HEPES, pH 7.5, 150 mM NaCl, 0.1% β-mercaptoethanol and protease inhibitors. Cellular debris was removed via centrifugation. The supernatant was loaded onto a Ni-NTA (Qiagen) column at 4 °C. The column was washed with 25 mM HEPES, pH 7.5, 150 mM NaCl, and 20 mM imidazole, then protein eluted with buffer containing 300 mM imidazole. The eluate was applied to a Superdex 200 (GE Healthcare) equilibrated with 25 mM HEPES, pH 7.5, 200 mM NaCl, and 1 mM DTT. The protein was judged to be greater than 95% pure by SDS-PAGE, concentrated to 3.5 mg/mL and stored at −80 °C. Yield was 450 mg/L of expressed media.
Lyso–DCN1 protein was thawed and concentrated to 9.9 mg/mL in 25 mM HEPES, pH 7.5, 200 mM NaCl, and 1 mM DTT. Each compound was incubated with protein in a 1:1.2 protein to compound molar ratio overnight at 4 °C, then spun and setup in sitting drop vapor diffusion experiments. Crystallization drops contained 2 µL of protein–inhibitor solution and 1 µL of well solution. Crystals grew at 20 °C with well solution containing 28–33% PEG 3350 and 200 mM ammonium formate. Crystals were cryoprotected in 25 mM HEPES, pH 7.5, 200 mM NaCl, 30% PEG 3350, and 1 mM DTT.
Diffraction data were collected at a wavelength of 0.9786 Å on the APS LS-CAT 21-ID-G beamline at Argonne National Laboratory. Data were processed using HKL2000[44] and solved via molecular replacement using molrep[45] with two independent search models (lysozyme and DCN1) from PDB ID 5V83. The structures were iteratively fit and refined using Coot[46] and Buster[47]. […]
Target sequence in this assay (Q96GG9 62-251): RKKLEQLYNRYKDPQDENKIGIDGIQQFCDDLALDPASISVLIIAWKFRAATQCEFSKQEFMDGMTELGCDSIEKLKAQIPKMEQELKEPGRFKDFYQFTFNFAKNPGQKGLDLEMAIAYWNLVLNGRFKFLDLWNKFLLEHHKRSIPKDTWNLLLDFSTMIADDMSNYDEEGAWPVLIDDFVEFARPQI

[3] = 10 min incubation, 1.2-fold excess inhibitor

| SMILES | covalent complex formation / reaction kinetics with DCN1 protein (in words) (DCN1 [1]) | Percentage of the formation of covalent complex with DCN1 protein (DCN1 [1]; [3]) [%] | Percentage of the formation of covalent complex with DCN1 protein (DCN1 [1]; 180 min (3 h) incubation) [%] | Percentage of the formation of covalent complex with DCN1 protein (DCN1 [1]; 720 min (12 h) incubation) [%] | solubility (Solubility) | Percentage of the formation of covalent complex with DCN1 protein (DCN1 [1]; 60 min (1 h) incubation) [%] | covalent bond to Cys115 of DCN1 in the cocrystal structure (DCN1 [2]) |
| --- | --- | --- | --- | --- | --- | --- | --- |
| CCC(=O)N[C@@H](Cc1nc2ccc(C(C)C)cc2s1)C(=O)N[C@H](CNC(=O)CCl)C1CCCCC1 [compound 2] | slow reaction kinetics | 0 | 15 | 70 | poor solubility |  |  |
| C=CC(=O)NC[C@@H](NC(=O)[C@H](Cc1nc2ccc(C(C)C)cc2s1)NC(=O)CC)C1CCCCC1 [compound 3] | slow reaction kinetics | 0 |  | 40 | poor solubility |  |  |
| CCC(=O)N[C@@H](Cc1nc2ccc(C(C)C)cc2s1)C(=O)N[C@H](CNC(=O)/C=C/CN1CCOCC1)C1CCCCC1 [compound 4] | slower reaction kinetics than 3 or 5 | 0 |  |  |  | 0 | no covalent bond formed |
